Results from article PMC9313812, “The Pseudo‐Natural Product Rhonin Targets RHOGDI” (Angewandte Chemie (International Ed. in English), 2022).

Assays:
Format in all cases: binding
RHOGDI1 [1] = biological target: T1, RHOGDI1 (Homo sapiens, UniProt P52565); assay: Limited proteolysis mass spectrometry (LiP-MS); conditions: 100 μM compound
T1 construct: GST; made in house; host or cells: E. coli (XL1-Blue / BL21)
T1 sequence (P52565 16-204): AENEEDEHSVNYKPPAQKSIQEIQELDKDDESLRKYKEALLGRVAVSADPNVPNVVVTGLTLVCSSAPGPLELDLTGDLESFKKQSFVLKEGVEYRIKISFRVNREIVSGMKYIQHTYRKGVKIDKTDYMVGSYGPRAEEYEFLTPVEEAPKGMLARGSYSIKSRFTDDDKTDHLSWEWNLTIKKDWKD

RHOGDI1 [2] = biological target: T2, RHOGDI1 (Homo sapiens, UniProt P52565); assay: Catch-and-release proteomics with lysine-reactive probe STPyne; conditions: 100 µM compound, 30 µM STPyne, HEK293T lysate
T2 construct: GST; made in house; host or cells: E. coli
Description: Supplementary Table S11: Extracted list of STPyne PC cleaved RHOGDI peptides identified by catch-and-release proteomics. HEK293T lysate overexpressing RHOGDI-F was treated with 100 µM Rhonin or DMSO, followed by 30 µM STPyne. Asterisks indicate […]
(also on this page, place not known: S 11: catch -and-release RHOGDI -F DMS O, Modified lysine position Average ratio intensity STPyne-Rhonin-100 µM/DMSO SD ratio intensity STPyne-Rhonin-100 µM/DMSO 15) […]
(1 picture or pasted object on this page, not shown here)
Samples were acidified to a final concentration of 5% acetic acid, desalted over a self-packed C18 spin column, and dried. Peptides were resuspended in water with 0.1 % formic acid (FA) and analyzed using EASY-nLC 1200 nano-UHPLC coupled to Q Exactive HF-X Quadrupole-Orbitrap mass spectrometer (Thermo Scientific). The chromatography column consisted of a 45 cm long, 75 μm i.d. microcapillary capped by a 5 μm tip and packed with ReproSil -Pur 120 C18-AQ 2.4 μm beads (Dr. Maisch GmbH). LC solvents were 0.1 % FA in water (Buffer A) and 0.1 % FA in 90 % MeCN: 10 % water (Buffer B). […] The MS data was analyzed with MaxQuant[11] and searched against the human proteome (Uniprot), a common list of contaminants (included in MaxQuant) and the amino acid sequence of recombinant RHOGDI. […]
T2 sequence (P52565 whole entry): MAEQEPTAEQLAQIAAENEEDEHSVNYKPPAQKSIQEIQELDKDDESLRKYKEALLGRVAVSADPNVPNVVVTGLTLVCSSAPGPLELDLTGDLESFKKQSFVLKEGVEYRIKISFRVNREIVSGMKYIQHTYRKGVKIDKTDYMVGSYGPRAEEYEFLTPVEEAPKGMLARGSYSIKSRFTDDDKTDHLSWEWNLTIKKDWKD

RHOGDI1 [3] = biological target: T2, RHOGDI1; assay: Fluorescence polarization competition with FITC-labelled GerGer-Rab1 peptide; conditions: 5 μM FITC-labelled GerGer-Rab1 peptide, 50 μM RHOGDI1
Description: Figure 4 Compound 7 a is a RHOGDI1 inhibitor. a) Structure of the affinity probes 8 and 9. b) Affinity‐based enrichment of RHOGDI1 from NIH/3T3 lysates by probe 8 as compared to probe 9 and detection using a RHOGDI1 antibody. c) Competition pulldown was performed as in b in presence of S10a as a competitor. d) Structure of the fluorescent derivative 10. e) Binding of derivative 10 to RHOGDI1‐3. […] Fluorescence polarization measurements using 10 and RHOGDI1‐3. […] Representative data (n=3). P: pellet; S: supernatant. g) Competition of derivative 10 with RAC1. Fluorescence polarization measurements after adding 2 μM prenylated RAC1 or non‐prenylated RAC1 to 2 μM compound 10 and 5 μM RHOGDI1. Representative data (n=3). h) Fluorescence polarization measurements upon titration of 7 a into a mixture of 5 μM FITC‐labelled GerGer‐Rab1 peptide and 50 μM RHOGDI1.

Competition with binding of RHOGDI1 to GerGer-RAB1 peptide (in words) (RHOGDI1 [3])	SMILES	Protection of RHOGDI1 peptides from proteinase K-mediated proteolysis (in words) (RHOGDI1 [1])	STPyne labeling of RHOGDI1 lysines in presence of compound (in words) (RHOGDI1 [2])
–	COC(=O)C1(C(CC(=O)c2cccnc2)c2ccccc2)N=C(c2ccc(Br)cc2)C2C(=O)N(C)C(=O)C21 (stereo not drawn) [7l]	several peptides in the 179–199 amino acid sequence were protected	lysines 186 and 199 in RHOGDI1 were less efficiently labeled
competed	COC(=O)C1(C(CC(=O)c2ccccc2)c2ccccc2)N=C(c2ccc(Br)cc2)C2C(=O)N(C)C(=O)C21 (stereo not drawn) [7a]	–	–
